Settings in all cases: Prostate gland
The species named for assay [1] is Rattus norvegicus. In words: Inhibition of 5alpha reductase in Wistar rat ventral prostate at 100 ug/mL by radiochromatography. The format is tissue-based.
Assay [2] is filed under the species Rattus norvegicus. The assay is described as follows: Inhibition of 5alpha reductase in Wistar rat ventral prostate at 50 ug/mL by radiochromatography. The format is tissue-based.
Assay [3] is filed under the species Rattus norvegicus. The assay is described as follows: Inhibition of 5alpha reductase in Wistar rat ventral prostate at 200 ug/mL by radiochromatography. Type of assay: tissue-based.
The target in assay [4] is T1, Androgen receptor (Rattus norvegicus) (UniProt P15207).
T1 sequence (whole entry): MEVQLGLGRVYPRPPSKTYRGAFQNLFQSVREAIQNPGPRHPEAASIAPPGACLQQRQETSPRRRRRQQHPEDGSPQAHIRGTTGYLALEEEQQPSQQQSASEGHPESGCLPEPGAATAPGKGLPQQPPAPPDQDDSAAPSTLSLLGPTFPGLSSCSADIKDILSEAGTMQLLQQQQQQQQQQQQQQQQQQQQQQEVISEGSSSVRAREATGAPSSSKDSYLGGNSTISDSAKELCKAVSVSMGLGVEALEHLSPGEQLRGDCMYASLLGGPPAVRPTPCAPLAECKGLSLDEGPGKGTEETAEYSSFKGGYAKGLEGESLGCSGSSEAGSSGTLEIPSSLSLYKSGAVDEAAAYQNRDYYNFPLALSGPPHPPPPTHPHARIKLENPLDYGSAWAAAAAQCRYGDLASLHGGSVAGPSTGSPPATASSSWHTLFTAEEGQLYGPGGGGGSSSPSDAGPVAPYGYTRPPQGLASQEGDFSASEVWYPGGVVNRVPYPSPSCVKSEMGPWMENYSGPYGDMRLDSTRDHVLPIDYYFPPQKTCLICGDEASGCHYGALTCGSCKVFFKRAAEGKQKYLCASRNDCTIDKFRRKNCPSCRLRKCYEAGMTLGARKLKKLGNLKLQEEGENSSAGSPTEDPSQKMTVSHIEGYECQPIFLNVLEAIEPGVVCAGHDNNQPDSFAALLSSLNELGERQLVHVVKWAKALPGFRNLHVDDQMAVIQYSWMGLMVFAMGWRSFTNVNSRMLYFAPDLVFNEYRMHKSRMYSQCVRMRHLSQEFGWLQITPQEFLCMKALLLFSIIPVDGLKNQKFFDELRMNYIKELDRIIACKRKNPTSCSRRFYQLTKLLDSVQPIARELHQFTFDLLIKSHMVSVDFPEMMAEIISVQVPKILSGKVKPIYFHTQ
In words: Displacement of [3H]dihydrotestosterone from androgen receptor in Wistar rat ventral prostate at 200 ug/mL by liquid scintillation counting.

Assay [5] addresses T1, Androgen receptor (Rattus norvegicus). In words: Displacement of [3H]dihydrotestosterone from androgen receptor in Wistar rat ventral prostate at 50 ug/mL by liquid scintillation counting. The format is tissue-based. (In general: In a radioligand displacement assay an active substance lowers the binding of a labelled ligand.)
Assay [6] shares this target. The assay is described as follows: Displacement of [3H]dihydrotestosterone from androgen receptor in Wistar rat ventral prostate at 100 ug/mL by liquid scintillation counting. Type of assay: tissue-based.

The source made the active and inactive calls. The calls are words filed in the database; no cut-off is given here.

In the case of `COc1cc(O)ccc1[C@H]1Oc2cc3oc(=O)ccc3cc2[C@@H]2C=C(C)C[C@@H](c3ccc(O)cc3OC)[C@H]12`, the inhibition (in general, the drop in the measured response relative to a control, in per cent) in the assay filed under Rattus norvegicus [1] is 49.9%; in the assay listed under Rattus norvegicus [2], 8.6%; in the assay listed under Rattus norvegicus [3], 72.3%; in assay [4], 62%; in assay [5] it was 60.3%; in assay [6], 70.9%.
Regarding `COc1cc(O)ccc1[C@@H]1CC(C)=C[C@H]2c3cc4ccc(=O)oc4cc3O[C@H](c3ccc(O)cc3)[C@H]21`, the inhibition in the assay listed under Rattus norvegicus [1] stood at 44.1%; in the assay listed under Rattus norvegicus [2] it was 3.4%; in the assay listed under Rattus norvegicus [3], 69.2%; in assay [4] it was 61.5%; in assay [5], 56.5%; in assay [6], 57.5%.
Take `COc1cc(O)ccc1[C@H]1Oc2cc3oc(=O)ccc3cc2[C@@H]2C=C(C)C[C@@H](c3ccc(O)c(O)c3)[C@H]12`: the inhibition is 4.8% in the assay listed under Rattus norvegicus [1], 0.3% in the assay filed under Rattus norvegicus [2] and 5.2% in the assay listed under Rattus norvegicus [3].
For the molecule `COc1cc(O)ccc1[C@H]1Oc2cc3oc(=O)ccc3cc2[C@@H]2C=C(C)C[C@@H](c3ccc(O)cc3)[C@H]12`, the inhibition came out at 28.8% in the assay listed under Rattus norvegicus [1]; 5.4% in the assay listed under Rattus norvegicus [2]; 59.2% in the assay filed under Rattus norvegicus [3]; 78.6% in assay [4]; 62.5% in assay [5]; 73.3% in assay [6].
As for `CC[C@H]1C[C@H]2[C@@H]3CCC4=CC(=O)CC[C@@H]4[C@H]3CC[C@]2(C)[C@H]1O`, in the assay filed under Rattus norvegicus [2], the outcome was Active.
As for `COc1cc(O)ccc1[C@@H]1CC(C)=C[C@H]2c3cc4ccc(=O)oc4cc3O[C@H](c3ccc(O)c(O)c3)[C@H]21`, the inhibition is 8.4% in the assay filed under Rattus norvegicus [1], 0.2% in the assay filed under Rattus norvegicus [2], 19.8% in the assay listed under Rattus norvegicus [3] and -8.6% in assay [6].

Values taken from ChEMBL document CHEMBL1158320, “Antiandrogenic natural Diels--Alder-type adducts from Brosimum rubescens” (J Nat Prod, 1997).
